Assays:
[1] = In vitro skin penetration study, excised human skin, Franz diffusion cells (Example 1A-1C); type: in vitro ADME
Description: Normal excised human skin samples obtained from breast reduction were used. Appropriate size specimens were frozen on the microtome with carbon dioxide and sectioned to a layer around 200 micrometers thick and stored in normal saline at 5° C. The skin sections were mounted on 9 mm inside diameter flat-top Franz diffusion cells. The diffusional cross-sectional area of the skin was 0.636 cm^2. A 50 microliter sample of a test formulation was placed on the skin in the donor compartment and the receiver compartment was filled with about 5 ml of normal saline (with pH adjusted to 4 with citric acid) and was well stirred. Water at 37.4° C. was circulated throughout the water jacket of the diffusion cell. A 100 microliter sample was withdrawn from the receiver compartment at appropriate intervals and analyzed for drug content by HPLC. The receptor fluid was replenished with normal saline after each withdrawal. All the receptor fluid and replenished fluid were thoroughly degassed before use.

volar forearms [2] = assay: Vasoconstriction (skin blanching) assay, double-blind within subject study (Example 2); type: in vivo, human; settings: inclusion of dermal penetration controlling amount of SNO3, PG and IPM
Description: (§1) Equal amounts of each coded test medication (approximately 10 mg) were applied to 2cm^2 sites on the volar forearms and left in place, unoccluded, for 8 hours. Vasoconstriction was assessed by grading the degree of blanching on a 4-point scale (none, mild, moderate, marked) at each test site at 4, 8, 10, 12 and 24 hours after application. Statistical analysis of the area under the curve (AUC) was conducted by ranking the AUC scores within each subject and performing an analysis of variance on the ranks (Friedman Test).

volar forearms [3] = assay: Vasoconstriction assay of Examples 3, 4 and 5 versus DIPROSONE and KENALOG (Example 6); type: in vivo, human
Description: as §1

forearms of humans = settings: general rule; depends on vehicle and concentration; cited from earlier work

SMILES	topical potency class (vasoconstriction assay) (forearms of humans)	also measured
CC1(C)O[C@@H]2C[C@H]3[C@@H]4CCC5=CC(=O)C=C[C@]5(C)[C@@]4(F)[C@@H](O)C[C@]3(C)[C@]2(C(=O)CO)O1 [TACA, triamcinolone acetonide]	mid-potency	penetration through the entire skin thickness (extent) [1]: only a small amount; potency class of TACA with SNO3, PG and IPM (volar forearms [2]): high potency steroid; potency class of TACA with SNO3, PG and IPM (volar forearms [3]; inclusion of SNO3, PG and IPM): high potency; TACA concentration needed for high potency in comparison to Kenalog cream (0.1% TACA) (volar forearms [3]; with SNO3, PG and IPM): three fold lower
C[C@H]1C[C@H]2[C@@H]3CCC4=CC(=O)C=C[C@]4(C)[C@@]3(F)[C@@H](O)C[C@]2(C)[C@@]1(O)C(=O)CO [betamethasone]	high potency	
C[C@H]1C[C@H]2[C@@H]3CCC4=CC(=O)C=C[C@]4(C)[C@@]3(F)[C@@H](O)C[C@]2(C)[C@@]1(O)C(=O)CCl [clobetasol]	ultra high potency	
C[C@]12CCC(=O)C=C1CC[C@@H]1[C@@H]2[C@@H](O)C[C@@]2(C)[C@H]1CC[C@]2(O)C(=O)CO [hydrocortisone]	low potency	
C[C@H]1C[C@@H]2[C@H]([C@@H](O)C[C@@]3(C)[C@H]2CC[C@]3(O)C(=O)CO)[C@@]2(C)C=CC(=O)C=C12 [methylprednisolone]	low potency	
C[C@]12C=CC(=O)C=C1CC[C@@H]1[C@@H]2[C@@H](O)C[C@@]2(C)[C@H]1CC[C@]2(O)C(=O)CO [prednisolone]	low potency	
